Holding throughout (format): in vivo, Arabidopsis thaliana
In test [1] the test system is Arabidopsis seedlings (ecotypes Col, Ler, Shadara). Briefly: Morphological phenotypes of Arabidopsis ecotype seedlings grown on Hsp90 inhibitor. The procedure: In most cases phenotypes were distinct and were not accompanied by a general failure to thrive. […] Next, several Arabidopsis ecotypes were tested from diverse geographic locations and environments, including Cape Verde Island ([…], Tsu-1, Mr-0, and Ts-1. […] Particular phenotypes were not restricted to particular ecotypes, but the frequencies at which they appeared varied reproducibly between them. […] 30% of seedlings had these phenotypes. […] also frequently produced distorted rosettes with juxtaposed cotyledons. Dwarfed plants with cotyledons that accumulated purple pigment were most common in Col. Curled hypocotyls were most frequent in Ler. Ecotypes were crossed several times in independent experiments to produce F1 seeds. […] Plates were unwrapped after 48 hrs at 22° C., were incubated in continuous light at 150 μmol m^-2 sec^-1 (unless otherwise indicated), and were analyzed after eight and ten days of growth.

For test [2], the system named is F1 seedlings (Col x Ler and Ler x Cvi). The experiment in a line: Phenotypes of F1 progeny of accession crosses with GdA. Particulars: Col x Ler and Ler x Cvi F1, in the presence of GdA. An excerpt: To investigate the interplay of genetic variation, stochastic processes, and their dependence on the Hsp90 buffering system, Applicants tested crosses of different, nearly homozygous accessions (Col x Ler and Ler x Cvi) that are believed to have been recentlyevolving independently. If stochastic events contribute to phenotypes predisposed by genotype, then mixing genomes might disrupt developmental stability in F1 progeny. Further, if Hsp90 buffers developmental stability against such events, reducing Hsp90 function in nearly identical F1 progeny should increase phenotypic variance. […] Phenotypes were stronger and more frequent in seedlings with a maternal contribution from Ler (˜20 to 25% affected seedlings) than with maternal contributions from Col or Cvi (˜10 to 15%).
(§1) Ecotypes were crossed several times in independent experiments to produce F1 seeds. […] Plates were unwrapped after 48 hrs at 22° C., were incubated in continuous light at ˜150 μmol m^−2 sec^−1 (unless otherwise indicated), and were analyzed after eight and ten days of growth.

For test [3], the system named is Cvi/Ler RI line seedlings. Briefly: RI line specific phenotypes on GdA.
Text: To test this, recombinant inbred lines (RI lines) were examined, which originated from crosses between two ecotypes followed by single-seed self-propagation for eight generations. Each line should be homozygous at almost all loci, with different lines representing various mosaics of the parental genomes (Alonso-Blanco et al., 1998). If a decrease in Hsp90 function uncovers novel phenotypes due to natural variation, GdA-induced phenotypes should vary between RI lines but tend to be shared within them. Here, work with 50 RI lines derived from a cross between Cvi and Ler (Cvi/Ler, CS22477 base set, ABRC) is presented. These lines are characterized by high rates of recombination and low segregation distortion (Alonso-Blanco et al., 1998). Col/Ler RI lines behaved similarly, although phenotypic variation was not quite so dramatic.
as §1
To minimize variation and provide more objective comparisons, two RI lines were plated together on each square plate. All sets were cold treated for 48 hrs. Foil-wrapped plates incubated at 22° C. were treated as described above. Since development was more rapid at 27° C., these plates were unwrapped after 24 hrs instead of 48 hrs. Phenotypes were scored at eight and ten days.

The mark [4] stands for this setting: RI line 082, S-shaped rosette with vertically oriented leaf blade of cotyledons.
The mark [5] stands for this setting: RI line 104, purple pigmentation of cotyledons and true leaves.
Where [6] appears, read: RI line 113, curled hypocotyl with root partially extended into air.
The mark [7] stands for this setting: RI line 119, deformed, radially-symmetric and missing true leaves.
Setting [8] is: RI line 120, radially-symmetric and missing true leaves.
Where [9] appears, read: RI line 122, distorted rosette, juxtaposed or fused cotyledons.

Data on one molecule can be found in patent publication US20030028927A1 (priority 2001, published 2003).

Turning to `COC1=C2C[C@@H](C)C[C@H](OC)[C@H](O)[C@@H](C)/C=C(\C)[C@H](OC(N)=O)[C@@H](OC)/C=C\C=C(/C)C(=O)NC(=CC1=O)C2=O` [GdA, geldanamycin], the “seedlings showing strong morphological abnormalities” value in test [1] (1.0 μM GdA, Col and Ler) was 5-8%. Moreover, the “phenotype frequency in selfed progeny” value in test [1] (progeny of selfed Shadara plants with subtle true leaf abnormalities, with GdA) was found to be 75%. Further, the “frequency of abnormal phenotypes in F1 progeny” value in test [2] was “up to 25%”. The “Frequency with 1 μM GdA at 22° C.” value worked out at 32% in test [3] (setting [4]); 34% in test [3] (setting [5]); 52% in test [3] (RI line 104, root morphology); 32% in test [3] (setting [6]); 68% in test [3] (setting [7]); 64% in test [3] (setting [8]). For the same molecule, the “Frequency with 1 μM GdA at 22° C.” value in test [3] (setting [9]) was determined as 28%; in test [3] (RI line 134, bent hypocotyls) it was 88%; in test [3] (RI line 159, root morphology), 50%. For the same molecule, the “Frequency with 1 μM GdA at 22° C. (count)” value is 64/201 in test [3] (setting [4]); 29/84 in test [3] (setting [5]); 44/84 in test [3] (RI line 104, root morphology); 9/28 in test [3] (setting [6]); 19/28 in test [3] (setting [7]); 18/29 in test [3] (setting [8]). Further, the “Frequency with 1 μM GdA at 22° C. (count)” value is listed as 44/158 in test [3] (setting [9]); 49/56 in test [3] (RI line 134, bent hypocotyls); 53/105 in test [3] (RI line 159, root morphology). The “decrease of growth rate” value in test [3] (relative to plants grown without GdA at 22° C.) was 0.5 to 1 days.
